Test results: a melting point compilation (Tetko et al.; mined from patent text by program, amines drawn as free bases though some values may be those of a salt)

Row | Compound | melting point [°C]
1 | Clc1cc(Br)ccc1OCc1ccccc1 | 59.5 to 60
2 | CC(C)(C)OC(=O)Cc1ccc(CC(N=C(c2ccccc2)c2ccccc2)C(=O)OCc2ccccc2)cc1 (stereo unspecified) | 139 to 141
3 | Oc1ccc2c(c1)C1CNCC(C2)C1 (stereo unspecified) | 215 to 217
4 | CC(C)N1CCN(C(=O)c2cc([N+](=O)[O-])cc(C(F)(F)F)c2)CC1 | 70.7
5 | CC(=O)Nc1ccc(OC(F)(F)C(F)F)cc1[N+](=O)[O-] | 80 to 81
6 | FC(F)(F)/C(=C(\c1ccccc1)c1ccc(OCc2ccccc2)cc1)c1ccccc1 | 128 to 129
7 | Nc1nnc(SCC(=O)C23CC4CC(CC(C4)C2)C3)s1 | 198 to 199
8 | COc1cccc(CNc2nccc(-c3cc(N4CCN(CCCN5CCC5)CC4)c4cc(OC)ccc4c3)n2)c1 | 122 to 130
9 | COc1ccc(N2CCN(c3ccc(N)cc3)CC2)cc1 | 192
10 | CCOC(=O)CCc1nc2cccnc2n(-c2cccc(NC(=O)Nc3ccccc3OC)c2)c1=O | 175
11 | Clc1ccc(-c2cn([C@H]3CN4CCC3CC4)nn2)cc1Cl | 108
12 | O=c1[nH]c2ccccc2c(=O)c2cc(Cl)ccc12 | 290 to 295
13 | Nc1nc2cccnc2c2c1ncn2CC1(O)CCOCC1 | 225 to 226
14 | Nc1ccc2ccc(-c3cccc(F)c3)nc2n1 | 160
15 | O=C1N(Cc2ccccc2C(F)(F)F)c2ccccc2C12COc1cc3[nH]ncc3cc12 (stereo unspecified) | 124 to 126
16 | CCN1CCCC(CC)(c2ccc(Nc3ncc4ccc(-c5ccccc5OC)n4n3)cc2)C1 (stereo unspecified) | 69 to 78
17 | N#CCCSCc1csc(=O)[nH]1 | 108 to 111
18 | CS(=O)(=O)N1CCC(Nc2nc(Nc3ccc(F)c(Cl)c3)nc(OCC(F)(F)F)n2)C1 (stereo unspecified) | 199 to 200
19 | COc1cc2c(cc1S(=O)(=O)c1ccccc1)[C@@H](N1CCCCC1=O)[C@H](O)C(C)(C)O2 (relative stereo) | 157 to 158
20 | Cn1cnc(COc2nc3c(nnn3-c3ccccc3)c3ccccc23)n1 | 189 to 190
21 | COc1ccc(C(CNc2ncnc3c2ncn3C2OC(CO)C(O)C2O)c2ccccc2)cc1 (stereo unspecified) | 87 to 92
22 | CN(C)c1cc(-c2c[nH]c(N)n2)ccn1 | > 270
23 | CCN1CCNC(=O)C1c1ccc(Nc2nc(Br)cn(CC)c2=O)cc1 (stereo unspecified) | 152 to 153
24 | CCC(C)(C)c1cc(-n2nc3ccccc3n2)c(O)c(C(C)(C)CC)c1 | 77 to 79
25 | COC(=O)C(=O)c1ccc(OCCOc2ccccc2F)cc1 | 112 to 113
26 | COc1cc2c(cc1OC)CN(CCCOc1ccc(NC(=O)c3nccc4ccccc34)cc1)CC2 | 160

Row | Compound | melting point [°C]
27 | COc1ccc(Nc2nc(Cl)nc(NC3CC3)n2)cc1Cl | 172
28 | Cn1c(-c2ccc(-c3ccccn3)cc2)c(C(=O)O)c(=O)n1-c1ccc(C#N)cc1 | 155 to 166
29 | CC(C)[C@@H]1C[C@@H]([C@H](CC2CCCCC2)N=[N+]=[N-])OC1=O | 38.5 to 39
30 | OC1(c2c[nH]c(-c3ccc(F)cc3)c2-c2ccncc2)CCNCC1 | 197 to 199
31 | COC(=O)C(C(=O)OC)c1ccccc1C(=O)O | 119 to 120
32 | NC(=O)c1ccc(F)c2c1C[C@@H](N(CCCc1c[nH]c3c(F)cc(F)cc13)CC1CC1)CO2 | 147 to 151
33 | O=c1oc(-c2ccc(Sc3ccccc3)cc2)nc2sccc12 | 203 to 204
34 | CN1C(=O)C(C(=O)Nc2ccccc2)c2cc3ccccc3cc2S1(=O)=O (stereo unspecified) | 188 to 190
35 | CN(COC(=O)Cc1ccccc1)C(=O)OC(C)(C)C | 96 to 98
36 | C[C@@H](c1ccc(C(=O)N(C)NC(N)=S)cc1)[C@](O)(Cn1cncn1)c1ccc(F)cc1F | 172 to 173
37 | c1ccc2c(c1)nc1n2CCCC1 | 104 to 106
38 | O=C1OC(c2ccccc2)=NC1=Cc1ccc(Oc2ccccc2)cc1 | 156 to 158
39 | c1ccc(N2CCN(Cc3ccc4ccccc4c3)CC2)nc1 | 124 to 126
40 | O=C(c1ccncc1)c1cc2c(c(C(=O)O)c1)OC(c1ccccc1)(c1ccccc1)O2 | 256 to 257
41 | CN(C)CCC(c1ccncc1)S(=O)(=O)c1ccc(Cl)cc1 (stereo unspecified) | 91 to 92
42 | CS(=O)(=O)On1nnc2c(Cl)cccc21 | 71 to 74
43 | O=C1N(CC2CCCO2)c2ccccc2C12COc1cc3c(cc12)CCCO3 (stereo unspecified) | 151 to 156
44 | Cn1cc(C2=C(c3cccc(N4CCC(O)CC4)c3)C(=O)NC2=O)c2ccccc21 | 136 to 141
45 | O=C(Nc1ccc(Oc2ccccc2)cc1)c1cc([N+](=O)[O-])ccc1Cl | 128
46 | O=C1NC(=O)C(=Cc2ccc(OCCN(Cc3ccccc3)c3nc4ccccc4s3)cc2)S1 | 185 to 188
47 | COc1ccccc1-c1ccc2ccc(N)nc2n1 | 182
48 | O=C(NC1CCC(CCN2CCN(c3nccc4c3OCC4)CC2)CC1)C1CCOC1 (stereo unspecified) | 195
49 | CC1(C)CC(CCCCNc2nc(Cl)nc(NCCCCC3CC(C)(C)NC(C)(C)C3)n2)CC(C)(C)N1 | 40 to 42
50 | COC(=O)c1ccc(-c2c[nH]c(-c3ccc4c(c3)C(C)(C)CCC4(C)C)c2)cc1 | 174 to 175
51 | OC12N=C(c3ccccc3)SC1(Br)Cc1cc(Cl)ccc12 (stereo unspecified) | 148
52 | CCCN(CCC)S(=O)(=O)c1ccc(C(CC2CCCC2)C(=O)Nc2nc3ccc(OC)nc3s2)cc1 (stereo unspecified) | 64 to 66

Results, then the compound that gave them:

Row | melting point [°C] | Compound
53 | 157 to 159 | O=C(Nc1cnc2c(c1)CCCC2)C(Cl)(Cl)Cl
54 | 163 to 166 | CONS(=O)(=O)c1cc(Cl)c(Cl)cc1Cl
55 | 158 to 159 | Nc1c(Br)cc2c(c1Br)C(C(Cl)(Cl)Cl)OC(C(Cl)(Cl)Cl)O2 (stereo unspecified)
56 | 176 to 179 | CCCn1c(CCOC)nc2c(N)nc3cc(OC4CCN(C(=O)NC(C)C)CC4)ccc3c21
57 | 107 to 109 | COc1nc2cc(F)cc(C)c2nc1OC
58 | 125 | CC(=O)Nc1cc(C)c([N+](=O)[O-])cc1CCOC(C)=O
59 | 142 to 144 | CC(=O)NC1CCN(c2c(F)cc([N+](=O)[O-])c(F)c2CO)C1 (stereo unspecified)
60 | 170 to 174 | COC(=O)c1cc(O)n2nc(C)nc2n1
61 | 127 to 129 | CNC(c1ccc(O)cc1)c1csc(S(N)(=O)=O)c1 (stereo unspecified)
62 | 207 to 210 | COC1CCc2c(cc(-c3ccccc3)n2-c2ccc(O)c(C(=O)O)c2)C1 (stereo unspecified)
63 | 263 | CS(=O)(=O)c1ccc(-c2oc(C(=O)O)cc(=O)c2Oc2ccc(Cl)cc2)cc1
64 | 108 to 110 | CSC1=C(c2ccc(O)cc2)C(=O)c2ccc(O)cc21
65 | 43 | Clc1cc(Cl)c2c(CCBr)coc2c1
66 | 127 to 128 | O=C(CCl)Oc1ccc(OC(=O)CCl)cc1
67 | 84 to 85 | CC(C)(C)OC(=O)N(N)Cc1ccc(-c2ccccc2)cc1
68 | 167 to 169 | CC(C)(C)c1cc(CCC(=O)O)cc2c1OC(=O)C2
69 | 293 to 294 | Cc1cc(-c2ccc(C(=O)O)cc2)ccn1
70 | 119 to 120 | CCOC(=O)c1c(C)cc2c(c1C)c(=O)n(-c1ccccc1C(F)(F)F)c(=O)n2CCN1CCN(C(=O)C=Cc2ccccc2)CC1
71 | 71 to 78 | CCOC(=NC(=O)c1ccc(OC)cc1)N1Cc2ccccc2-c2ccccc2C1
72 | 79 to 80 | CCOC(=O)CCCCCSc1nnc(S)s1
73 | 123 | CC(CO)N1c2ccccc2Sc2ccc(C#N)cc21 (racemic)
74 | 110 to 111 | CCC(O)(c1ccc(OCc2cccc(C)n2)cc1)c1ccccc1OC (stereo unspecified)
75 | > 200 | CCCn1c(=S)[nH]c2ccc(I)cc2c1=O
76 | 65.5 | Cc1cc(C)c(C)c(C(=O)CCl)c1C
77 | 235 to 236 | CC(C)(C)OC(=O)NC1Cc2cccc3[nH]c(=O)n(c23)C1 (stereo unspecified)

Row | melting point [°C] | Compound
78 | 193 to 196 | CCOC(=O)C(=O)c1csc(NC(=O)Nc2ccc(OC)cc2)n1
79 | 147 to 148 | CCn1c(C)c(C(=O)c2ccccc2)c(N=Cc2ccccc2)c1-c1ccccc1
80 | 176 to 177 | COC(=O)C(=NO)c1nc2cc(C)ccc2oc1=O
81 | 96 to 98 | CCCCN(CCCC)c1nc(-c2ccc(OC)cc2)nc2sc(C#N)c(C)c12
82 | 147 to 148 | Cc1cc(-c2ccccc2)nc(-c2cccc([N+](=O)[O-])c2)c1C(=O)NCCN1CCOCC1
83 | 223 to 224 | Nc1ccc(Oc2ccc(O)c(C(=O)O)c2)cc1
84 | 51 to 53 | CSc1nc(C(C)(C)C)nn1C(=O)N(C)C
85 | 166 to 170 | O=C(O)CCC(=O)NNc1ccnc2c(NC(=O)c3c(Cl)cccc3Cl)cccc12
86 | 151 to 153 | CC(C)(C)OC(=O)Nc1cccc(C(=O)OCc2ccccc2)c1
87 | 129 to 131 | Cc1cccc(C(=O)O)c1OC1CCOC1=O (stereo unspecified)
88 | 89 to 90 | CCOC(=O)C(C)(C)CCCCOc1cc(C)c(N=Nc2ccc([N+](=O)[O-])cc2)c(C)c1
89 | 203 to 204 | COc1ccc(N2C(=O)C3=C(CCCC3)C2CC(=O)O)cc1 (stereo unspecified)
90 | 54 to 55 | CC(C)(C)C(=O)C(F)n1cncn1 (stereo unspecified)
91 | 265 to 270 | O=C(Nc1nc2ccc(C(F)(F)F)cc2s1)c1c(F)cccc1Cl
92 | 152 to 154 | CC1(C)COc2c1cc(C=O)c(O)c2Br
93 | 120 to 121 | CCn1c(COCc2ccc(OC)cc2)nc(C(C)C)c1Sc1cc(Cl)cc(Cl)c1
94 | 117 to 119 | CCOc1ccc(OCC(=O)OC(C)(C)C)c2c1C(=O)N(CCl)S2(=O)=O
95 | 117 | CCN(CC(C)C)c1c(C(O)C#Cc2ccc(C(=O)O)cc2)cccc1C(C)(C)C (stereo unspecified)
96 | 176 to 178 | CCCCCCCCc1cc2c(cc1/C(C)=C/c1ccc(C(=O)O)cc1)C(C)(C)CCS2(=O)=O
97 | 124 to 126 | CCNC(=O)c1c(Cl)cc(C(C)(C)C)cc1[Si](C)(C)C
98 | 73 to 75 | CCC(OC(C)=O)C(C)[N+](=O)[O-] (stereo unspecified)
99 | 80.6 to 82.9 | Cc1cc(C)c(NC(=O)CCCCCl)c(Cl)c1
100 | 187 to 190 | COc1ccc(C(=O)c2[nH]c3cc(Cl)ccc3c2CC(=O)O)cc1
101 | 170 | CCCCc1nc(O)c(CC(=O)OCC)c(=O)n1Cc1ccc(C(=O)OC)cc1
